Assay results: PubChem BioAssay AID248 (DTP/NCI, 2004)
“And” between values parts separate entries of the source, which are not always exact repeats. Equal entries are not always repeated. Inconclusive results and toxic doses are left out. Cut-off read from the data, not from the text of the source: active = T/C of 150% or more; inactive = T/C below 125%.

Tested on: L1210 leukemia ip in BDF1 mice, survival T/C
Experiment: NCI In Vivo Anticancer Drug Screen. Data for tumor model L1210 Leukemia (intraperitoneal) in B6D2F1 (BDF1) mice
Conditions: endpoint: mean survival time, higher = longer survival
Method in brief: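 Value reflects the ratio of survival in compound-treated mice to survival in vehicle-treated controls, with both groups carrying the same transplanted tumor.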

[1] = dose: 100.0 mg/kg/injection, schedule: Q01DX009 (ip), vehicle: saline with Tween-80
[2] = dose: 100.0 mg/kg/injection, schedule: Q04DX003 (ip), vehicle: saline with Tween-80
[3] = dose: 200.0 mg/kg/injection, schedule: Q01DX009 (ip), vehicle: saline with Tween-80
[4] = dose: 200.0 mg/kg/injection, schedule: Q04DX003 (ip), vehicle: saline with Tween-80
[5] = dose: 400.0 mg/kg/injection, schedule: Q04DX003 (ip), vehicle: saline with Tween-80
[6] = dose: 25.0 mg/kg/injection, schedule: Q01DX009 (ip), vehicle: saline
[7] = dose: 50.0 mg/kg/injection, schedule: Q01DX009 (ip), vehicle: saline
[8] = dose: 100.0 mg/kg/injection, schedule: Q01DX009 (ip), vehicle: saline
[9] = dose: 100.0 mg/kg/injection, schedule: Q04DX003 (ip), vehicle: Klucel (hydroxypropylcellulose) (HPC)
[10] = dose: 200.0 mg/kg/injection, schedule: Q04DX003 (ip), vehicle: Klucel (hydroxypropylcellulose) (HPC)
[11] = dose: 400.0 mg/kg/injection, schedule: Q04DX003 (ip), vehicle: Klucel (hydroxypropylcellulose) (HPC)
[12] = dose: 100.0 mg/kg/injection, schedule: Q04DX003 (ip), vehicle: saline
[13] = dose: 100.0 mg/kg/injection, schedule: Q01DX001 (ip), vehicle: saline
[14] = dose: 200.0 mg/kg/injection, schedule: Q01DX001 (ip), vehicle: saline
[15] = dose: 400.0 mg/kg/injection, schedule: Q01DX001 (ip), vehicle: saline
[16] = dose: 100.0 mg/kg/injection, schedule: Q01DX001 (ip), vehicle: Klucel (hydroxypropylcellulose) (HPC)
[17] = dose: 200.0 mg/kg/injection, schedule: Q01DX001 (ip), vehicle: Klucel (hydroxypropylcellulose) (HPC)
[18] = dose: 400.0 mg/kg/injection, schedule: Q01DX001 (ip), vehicle: Klucel (hydroxypropylcellulose) (HPC)
[19] = dose: 50.0 mg/kg/injection, schedule: Q01DX009 (ip), vehicle: saline with Tween-80

Measured: T/C

Cc1ccc(NS(=O)(=O)c2ccc3ccccc3c2)c(C)c1
inactive: [1] 106 % of control | [2] 89 % of control | [3] 112 % of control | [4] 102 % of control | dose: 400.0 mg/kg/injection, schedule: Q01DX009 (ip), vehicle: saline with Tween-80 107 % of control | [5] 89 % of control

O=C(O)c1ccc(Br)cc1.[Ni]
inactive: dose: 25.0 mg/kg/injection, schedule: Q04DX002 (ip), vehicle: gum acacia 100 % of control | dose: 50.0 mg/kg/injection, schedule: Q04DX002 (ip), vehicle: gum acacia 101 % of control

N=C(N)S/C=C/CSC(=N)N
inactive: dose: 10.0 mg/kg/injection, schedule: Q01DX001 (ip), vehicle: saline 90 % of control | dose: 20.0 mg/kg/injection, schedule: Q01DX001 (ip), vehicle: saline 95 % of control | dose: 40.0 mg/kg/injection, schedule: Q01DX001 (ip), vehicle: saline 95 % of control | dose: 80.0 mg/kg/injection, schedule: Q01DX001 (ip), vehicle: saline 97 % of control

COC1=CC23CCCN2CCc2cc4c(cc2C3C1OC(C)=O)OCO4 (configuration not stated)
inactive: [6] 106 % of control | [7] 106 % of control | [8] 102 % of control

CC(=O)N(N=Nc1ccccc1)c1cccc2ccccc12
inactive: dose: 100.0 mg/kg/injection, schedule: Q01DX009 (ip), vehicle: Klucel (hydroxypropylcellulose) (HPC) 116 % of control | [9] 108 % of control | dose: 200.0 mg/kg/injection, schedule: Q01DX009 (ip), vehicle: Klucel (hydroxypropylcellulose) (HPC) 96 % of control | [10] 109 % of control | [11] 108 % of control

CC1CCCCN1CCCO (configuration not stated)
inactive: [6] 87 % of control | dose: 25.0 mg/kg/injection, schedule: Q04DX003 (ip), vehicle: saline 103 % of control | [7] 91 % of control | dose: 50.0 mg/kg/injection, schedule: Q04DX003 (ip), vehicle: saline 112 % of control | [8] 89 % of control | [12] 92 % of control and 95 % of control

CCCCCCCN(CCCCCCC)C(C)=O
inactive: dose: 100.0 mg/kg/injection, schedule: Q01DX001 (ip), vehicle: other 93 % of control | dose: 200.0 mg/kg/injection, schedule: Q01DX001 (ip), vehicle: other 93 % of control | dose: 400.0 mg/kg/injection, schedule: Q01DX001 (ip), vehicle: other 93 % of control

CCCC(C(=O)c1ccc(OC)cc1)C(O)(C(F)(F)F)C(F)(F)F (configuration not stated)
inactive: [9] 91 % of control | [10] 98 % of control | [11] 100 % of control

NC(=O)OCC(COC(N)=O)(c1ccccc1)c1ccccc1
inactive: dose: 45.0 mg/kg/injection, schedule: Q01DX001 (ip), vehicle: saline 101 % of control | dose: 67.0 mg/kg/injection, schedule: Q01DX001 (ip), vehicle: saline 95 % of control and 101 % of control | [13] 98 % of control | dose: 150.0 mg/kg/injection, schedule: Q01DX001 (ip), vehicle: saline 95 % of control and 104 % of control

Nc1[nH]c(=O)[nH]c(=O)c1N=Nc1ccc(S(=O)(=O)Nc2ccccn2)cc1
inactive: [13] 98 % of control | [14] 96 % of control | [15] 104 % of control

CC(C)n1c2c([n+](C)c1/C=C/c1ccccc1)C(=O)c1ccccc1C2=O
inactive: dose: 1.0 mg/kg/injection, schedule: Q01DX009 (ip), vehicle: Klucel (hydroxypropylcellulose) (HPC) 106 % of control | dose: 1.0 mg/kg/injection, schedule: Q04DX003 (ip), vehicle: Klucel (hydroxypropylcellulose) (HPC) 107 % of control | dose: 2.0 mg/kg/injection, schedule: Q01DX009 (ip), vehicle: Klucel (hydroxypropylcellulose) (HPC) 101 % of control | dose: 2.0 mg/kg/injection, schedule: Q04DX003 (ip), vehicle: Klucel (hydroxypropylcellulose) (HPC) 96 % of control | dose: 4.0 mg/kg/injection, schedule: Q04DX003 (ip), vehicle: Klucel (hydroxypropylcellulose) (HPC) 86 % of control | dose: 5.0 mg/kg/injection, schedule: Q01DX001 (ip), vehicle: saline 103 % of control

COc1ccc(-c2oc3ccccc3c(=O)c2O)cc1OC
inactive: dose: 50.0 mg/kg/injection, schedule: Q01DX001 (ip), vehicle: saline 87 % of control | [13] 98 % of control | [14] 91 % of control | [15] 93 % of control

NC(=O)c1ccccc1NC(=O)CCCOc1ccccc1
inactive: [16] 100 % of control | [9] 94 % of control | [17] 93 % of control | [10] 97 % of control | [18] 96 % of control

CCOC(=O)C1CC2CC(C1=O)C2(C)C (configuration not stated)
inactive: [2] 96 % of control | [4] 101 % of control | [5] 93 % of control

O=C1OC2CC3CC2C1C3C(=O)N1CCCCC1 (configuration not stated)
inactive: [2] 115 % of control | [12] 98 % of control | [4] 100 % of control | dose: 200.0 mg/kg/injection, schedule: Q04DX003 (ip), vehicle: saline 96 % of control | [5] 100 % of control | dose: 400.0 mg/kg/injection, schedule: Q04DX003 (ip), vehicle: saline 96 % of control

CCc1cc(CC)c(/C(Cl)=C/C(=O)NCC(=O)O)c(CC)c1Br
inactive: dose: 75.0 mg/kg/injection, schedule: Q04DX003 (ip), vehicle: Klucel (hydroxypropylcellulose) (HPC) 95 % of control | dose: 150.0 mg/kg/injection, schedule: Q04DX003 (ip), vehicle: Klucel (hydroxypropylcellulose) (HPC) 93 % of control | dose: 300.0 mg/kg/injection, schedule: Q04DX003 (ip), vehicle: Klucel (hydroxypropylcellulose) (HPC) 87 % of control

CCCC(=O)Nc1cc2c3c(c1)CCCN3CCC2
inactive: [19] 96 % of control

C[C@]12CCC(=O)C=C1CC[C@@H]1[C@@H]2[C@@H](O)C[C@@]2(C)[C@H]1CC[C@]2(O)C(=O)CO
inactive: dose: 12.0 mg/kg/injection, schedule: Q01DX015 (sc), vehicle: steriod suspending solution 100 % of control | dose: 25.0 mg/kg/injection, schedule: Q01DX015 (sc), vehicle: steriod suspending solution 100 % of control | dose: 50.0 mg/kg/injection, schedule: Q01DX015 (sc), vehicle: steriod suspending solution 102 % of control | dose: 100.0 mg/kg/injection, schedule: Q01DX001 (sc), vehicle: steriod suspending solution 102 % of control | dose: 100.0 mg/kg/injection, schedule: Q01DX Z (sc), vehicle: steriod suspending solution 101 % of control | dose: 200.0 mg/kg/injection, schedule: Q01DX001 (sc), vehicle: steriod suspending solution 108 % of control | dose: 200.0 mg/kg/injection, schedule: Q01DX Z (sc), vehicle: steriod suspending solution 102 % of control | dose: 400.0 mg/kg/injection, schedule: Q01DX001 (sc), vehicle: steriod suspending solution 108 % of control | dose: 400.0 mg/kg/injection, schedule: Q01DX Z (sc), vehicle: steriod suspending solution 102 % of control | dose: 800.0 mg/kg/injection, schedule: Q01DX Z (sc), vehicle: steriod suspending solution 94 % of control | dose: 1000.0 mg/kg/injection, schedule: Q01DX015 (sc), vehicle: steriod suspending solution 104 % of control

C/C=C/CC/C(=N\Nc1ccc([N+](=O)[O-])cc1[N+](=O)[O-])c1ccccc1
inactive: [16] 96 % of control | [17] 96 % of control | [18] 100 % of control

C/C(=N/O)c1ccc2c(c1)/C(=N/O)c1ccccc1-2
inactive: dose: 100.0 mg/kg/injection, schedule: Q01DX001 (ip), vehicle: carboxymethylcellulose (CMC) 109 % of control | dose: 200.0 mg/kg/injection, schedule: Q01DX001 (ip), vehicle: carboxymethylcellulose (CMC) 94 % of control | dose: 400.0 mg/kg/injection, schedule: Q01DX001 (ip), vehicle: carboxymethylcellulose (CMC) 93 % of control

Clc1ccc(CSSCc2ccc(Cl)cc2)cc1
inactive: dose: 100.0 mg/kg/injection, schedule: Q04DX002 (ip), vehicle: Klucel (hydroxypropylcellulose) (HPC) 95 % of control | dose: 200.0 mg/kg/injection, schedule: Q04DX002 (ip), vehicle: Klucel (hydroxypropylcellulose) (HPC) 110 % of control | dose: 400.0 mg/kg/injection, schedule: Q04DX002 (ip), vehicle: Klucel (hydroxypropylcellulose) (HPC) 100 % of control

O=C(N/N=C/Cc1ccccc1)C(=O)N/N=C/Cc1ccccc1
inactive: [19] 102 % of control | [1] 91 % of control

COc1cc(OC)c(OC)cc1C=NC1CCCCCCC1
inactive: [19] 91 % of control | [1] 102 % of control | [3] 102 % of control
